According to ChEMBL document CHEMBL5506031, “Design, Synthesis, Bioactive Evaluation, and Molecular Dynamics Simulation of Novel 4H-Pyrano[3,2-c]pyridine Analogues as Potential Sterol 14α-Demethylase (CYP51) Inhibitors” (J Med Chem, 2024):
Converted amounts (≈) assume the structure as drawn. The source made the active and inactive calls. The calls are words filed in the database; no cut-off is given here.

Assays:
Sclerotinia sclerotiorum = test: Fungicidal activity against Sclerotinia sclerotiorum assessed as fungal inhibitory rate at 16 ug/ml relative to control; type: functional
Botrytis cinerea [1] = test: Fungicidal activity against Botrytis cinerea assessed as fungal inhibitory rate at 16 ug/ml relative to control; type: functional
Penicillium digitatum = test: Fungicidal activity against Penicillium digitatum assessed as fungal inhibitory rate at 16 ug/ml relative to control; type: functional
Fusarium oxysporum = test: Fungicidal activity against Fusarium oxysporum assessed as fungal inhibitory rate at 16 ug/ml relative to control; type: functional
Botrytis cinerea [2] = test: Fungicidal activity against Botrytis cinerea assessed as fungal growth reduction; type: functional, organism-based
[3] = Inhibition of Botrytis cinerea CYP51 by ELISA
Colletotrichum lagenaria = test: Fungicidal activity against Colletotrichum lagenarium assessed as fungal inhibitory rate at 16 ug/ml relative to control; type: functional
Aspergillus niger = test: Antifungal activity against Aspergillus niger; type: functional
Botrytis cinerea [4] = test: Induction of morphological changes in Botrytis cinerea assessed as tangled mycelia at 0.5 ug/ml incubated for 6 days by SEM analysis; type: functional, organism-based; conditions: dose 0.5 µg/ml, time 6.0 day
Botrytis cinerea [5] = test: Induction of morphological changes in Botrytis cinerea assessed as crinkly mycelia at 0.5 ug/ml incubated for 6 days by SEM analysis; type: functional, organism-based; conditions: dose 0.5 µg/ml, time 6.0 day
Botrytis cinerea [6] = test: Induction of morphological changes in Botrytis cinerea assessed as cracked cell structure at 0.5 ug/ml incubated for 6 days by TEM analysis; type: functional, organism-based; conditions: dose 0.5 µg/ml, time 6.0 day
Botrytis cinerea [7] = test: Induction of morphological changes in Botrytis cinerea assessed as uneven mycelia at 0.5 ug/ml incubated for 6 days by SEM analysis; type: functional, organism-based; conditions: dose 0.5 µg/ml, time 6.0 day
Botrytis cinerea [8] = test: Induction of morphological changes in Botrytis cinerea assessed as thin cell membrane at 0.5 ug/ml incubated for 6 days by TEM analysis; type: functional, organism-based; conditions: dose 0.5 µg/ml, time 6.0 day
Botrytis cinerea [9] = test: Inhibition of Botrytis cinerea CYP51 by fluorescent quenching analysis; conditions: dose <= 16.0 µg/ml
Botrytis cinerea [10] = test: Induction of morphological changes in Botrytis cinerea assessed as irregular mycelia at 0.5 ug/ml incubated for 6 days by SEM analysis; type: functional, organism-based; conditions: dose 0.5 µg/ml, time 6.0 day
Botrytis cinerea [11] = test: Induction of morphological changes in Botrytis cinerea assessed as thin cell wall at 0.5 ug/ml incubated for 6 days by TEM analysis; type: functional, organism-based; conditions: dose 0.5 µg/ml, time 6.0 day

SMILES | inhibition at 16 µg/mL (Sclerotinia sclerotiorum) | inhibition at 16 µg/mL (Botrytis cinerea [1]) | inhibition at 16 µg/mL (Penicillium digitatum) | inhibition at 16 µg/mL (Fusarium oxysporum) | EC50 (Botrytis cinerea [2]) | IC50 [3] | inhibition at 16 µg/mL (Colletotrichum lagenaria) | further results
CN1CC2=C(OC(N)=C(C#N)C2c2ccc(Br)o2)/C(=C/c2ccc(Br)o2)C1 (stereo not given) | 87.2% | 72.8% | 78.2% | 52.2% |  |  |  | 
N#CC1=C(N)OC2=C(CN(C(=O)c3cccs3)C/C2=C\c2ccc(Br)s2)C1c1ccc(Br)s1 (stereo not given) | 48.9% |  | 42.2% | 41% | 2.71 µg/mL (≈ 4.36 µM) | 3.031 µg/mL (≈ 4.88 µM) | 44.3% | 
COc1ccc(C2c3ccc4ccccc4c3Oc3[nH]c(=S)[nH]c(=S)c32)cc1 (stereo not given) |  |  |  |  |  |  |  | MIC (Aspergillus niger): 125 µg/mL (≈ 309 µM)
COC(=O)C1=C(N)OC2=C(CN(C)C/C2=C\c2ccc(Br)o2)C1c1ccc(Br)o1 (stereo not given) | 77.4% | 60% |  | 45.6% |  |  |  | 
Cc1ccc(/C=C2\CN(C)CC3=C2OC(N)=C(C#N)C3c2ccc(C)o2)o1 (stereo not given) | 81.6% | 65.6% | 74% | 48.5% |  |  | 84.8% | 
N#CC1=C(N)OC2=C(CN(C(=O)c3ccco3)C/C2=C\c2ccc(Br)o2)C1c1ccc(Br)o1 (stereo not given) | 55.2% | 100% | 49% | 50.5% | 1.71 µg/mL (≈ 2.98 µM) | 1.86 µg/mL (≈ 3.24 µM) | 55.8% | 
COC(=O)C1=C(N)OC2=C(CN(C)C/C2=C\c2ccco2)C1c1ccco1 (stereo not given) | 73.7% | 56.7% | 60.9% | 41.7% |  |  | 76.5% | 
N#CC1=C(N)OC2=C(CN(C(=O)c3cccs3)C/C2=C\c2cccs2)C1c1cccs1 (stereo not given) | 37.6% | 73.6% | 30.2% |  |  |  | 33.7% | 
Cc1ccc(/C=C2\CN(C(=O)c3cccs3)CC3=C2OC(N)=C(C#N)C3c2ccc(C)o2)o1 (stereo not given) | 24.7% | 56.9% | 21.9% | 22.9% |  |  | 23.4% | 
N#CC1=C(N)OC2=C(CN(C(=O)c3cccs3)C/C2=C\c2ccco2)C1c1ccco1 (stereo not given) | 58.5% | 100% | 51.7% | 52.7% | 1.34 µg/mL (≈ 3.1 µM) | 1.649 µg/mL (≈ 3.82 µM) | 57% | 
COC(=O)C1=C(N)OC2=C(CN(C(=O)c3cccs3)C/C2=C\c2ccc(Cl)s2)C1c1ccc(Cl)s1 (stereo not given) | 74.1% | 100% | 67.5% | 72.8% | 0.824 µg/mL (≈ 1.46 µM) | 0.907 µg/mL (≈ 1.6 µM) | 72.2% | 
COC(=O)C1=C(N)OC2=C(CN(C(=O)c3cccs3)C/C2=C\c2cccs2)C1c1cccs1 (stereo not given) | 40.5% | 78.4% | 33.8% | 31.5% |  |  | 36.4% | 
N#CC1=C(N)OC2=C(CN(C(=O)c3ccco3)C/C2=C\c2ccc(Cl)s2)C1c1ccc(Cl)s1 (stereo not given) | 53.5% | 94% | 47.1% | 46.6% | 2.07 µg/mL (≈ 4.01 µM) | 2.333 µg/mL (≈ 4.52 µM) | 52.5% | 
N#CC1=C(N)OC2=C(CN(C(=O)c3cccs3)C/C2=C\c2ccc(Br)o2)C1c1ccc(Br)o1 (stereo not given) | 62.7% | 100% | 54.5% | 55.2% | 1.3 µg/mL (≈ 2.21 µM) | 1.522 µg/mL (≈ 2.58 µM) |  | 
COc1ccc(C2c3ccc4ncccc4c3Oc3nc[nH]c(=S)c32)cc1 (stereo not given) |  |  |  |  |  |  |  | MIC (Aspergillus niger): 125 µg/mL (≈ 335 µM)
COC(=O)C1=C(N)OC2=C(CN(C(=O)c3ccco3)C/C2=C\c2cccs2)C1c1cccs1 (stereo not given) | 43.4% | 82.2% | 36.1% | 34% |  |  | 38.2% | 
COC(=O)C1=C(N)OC2=C(CN(C(=O)c3cccs3)C/C2=C\c2ccc(Br)s2)C1c1ccc(Br)s1 (stereo not given) | 68.5% | 100% | 61% | 62.9% | 1.04 µg/mL (≈ 1.59 µM) | 1.288 µg/mL (≈ 1.97 µM) | 66.2% | 
COC(=O)C1=C(N)OC2=C(CN(C)C/C2=C\c2ccc(Br)s2)C1c1ccc(Br)s1 (stereo not given) | 38.3% | 31.6% | 22.5% | 20.3% |  |  | 33.6% | 

SMILES | inhibition at 16 µg/mL (Sclerotinia sclerotiorum) | inhibition at 16 µg/mL (Botrytis cinerea [1]) | inhibition at 16 µg/mL (Penicillium digitatum) | inhibition at 16 µg/mL (Fusarium oxysporum) | EC50 (Botrytis cinerea [2]) | IC50 [3] | inhibition at 16 µg/mL (Colletotrichum lagenaria) | further results
Cc1ccc(/C=C2\CN(C)CC3=C2OC(N)=C(C#N)C3c2ccc(C)s2)s1 (stereo not given) | 58.6% |  | 38.9% | 27.6% |  |  | 57.6% | 
Cc1ccc(/C=C2\CN(C(=O)c3ccco3)CC3=C2OC(N)=C(C#N)C3c2ccc(C)s2)s1 (stereo not given) |  | 70.1% | 28.5% | 27.6% |  |  | 31.1% | 
COC(=O)C1=C(N)OC2=C(CN(C(=O)c3ccco3)C/C2=C\c2ccc(Br)s2)C1c1ccc(Br)s1 (stereo not given) | 71.6% | 100% | 64.3% | 67.5% | 0.976 µg/mL (≈ 1.53 µM) | 1.138 µg/mL (≈ 1.78 µM) | 69.3% | 
N#CC1=C(N)OC2=C(CN(C(=O)c3ccco3)C/C2=C\c2cccs2)C1c1cccs1 (stereo not given) | 27.9% | 62.7% |  | 23.8% |  |  |  | 
COC(=O)C1=C(N)OC2=C(CN(C)C/C2=C\c2cccs2)C1c1cccs1 (stereo not given) | 57.2% | 38.8% | 34.2% | 25.8% |  |  | 51.8% | 
COC(=O)C1=C(N)OC2=C(CN(C)C/C2=C\c2ccc(Cl)s2)C1c1ccc(Cl)s1 (stereo not given) | 49.6% | 35.2% | 30% | 23.6% |  |  | 42.9% | 
N#CC1=C(N)OC2=C(CN(C(=O)c3ccco3)C/C2=C\c2ccc(Br)s2)C1c1ccc(Br)s1 (stereo not given) | 31.6% | 66.5% | 25.7% | 25% |  |  | 28.1% | 
Cc1ccc(/C=C2\CN(C(=O)c3ccco3)CC3=C2OC(N)=C(C#N)C3c2ccc(C)o2)o1 (stereo not given) | 46.2% | 85.4% | 39% | 38.1% |  |  |  | 
CN1CC2=C(OC(N)=C(C#N)C2c2ccc(Br)s2)/C(=C/c2ccc(Br)s2)C1 (stereo not given) | 60.7% | 44.8% | 42.5% | 31.2% |  |  | 60.5% | 
COC(=O)C1=C(N)OC2=C(CN(C(=O)c3ccco3)C/C2=C\c2ccc(Cl)s2)C1c1ccc(Cl)s1 (stereo not given) |  | 100% | 70% | 77.7% | 0.761 µg/mL (≈ 1.39 µM) | 0.831 µg/mL (≈ 1.51 µM) | 75.7% | 
Cc1ccc(/C=C2\CN(C(=O)c3cccs3)CC3=C2OC(N)=C(C#N)C3c2ccc(C)s2)s1 (stereo not given) | 21.1% | 51.8% | 20.1% | 20.3% |  |  | 20.5% | 
N#CC1=C(N)OC2=C(CN(C(=O)c3ccco3)C/C2=C\c2ccco2)C1c1ccco1 (stereo not given) | 65.4% | 100% | 58.2% |  | 1.17 µg/mL (≈ 2.82 µM) | 1.425 µg/mL (≈ 3.43 µM) |  | 
COC(=O)C1=C(N)OC2=C(CN(C(=O)c3ccco3)C/C2=C\c2ccco2)C1c1ccco1 (stereo not given) | 85% | 100% | 78.4% | 87.1% |  | 0.377 µg/mL (≈ 0.841 µM) | 86.8% | Activity (Botrytis cinerea [4]): Active; Activity (Botrytis cinerea [5]): Active; Activity (Botrytis cinerea [6]): Active; Activity (Botrytis cinerea [7]): Active; Activity (Botrytis cinerea [8]): Active; inhibition (Botrytis cinerea [9]): Dose-Dependent Effect; Activity (Botrytis cinerea [10]): Active; Activity (Botrytis cinerea [11]): Active
N#CC1=C(N)OC2=C(CN(C(=O)c3cccs3)C/C2=C\c2ccc(Cl)s2)C1c1ccc(Cl)s1 (stereo not given) | 50.8% | 92.9% | 44.8% | 43.5% | 2.25 µg/mL (≈ 4.22 µM) | 2.625 µg/mL (≈ 4.93 µM) | 48.7% | 
COC(=O)C1=C(N)OC2=C(CN(C(=O)c3cccs3)C/C2=C\c2ccc(Br)o2)C1c1ccc(Br)o1 (stereo not given) | 80% | 100% | 73.1% | 80.9% | 0.61 µg/mL (≈ 0.98 µM) | 0.748 µg/mL (≈ 1.2 µM) | 78.3% | 
CN1CC2=C(OC(N)=C(C#N)C2c2ccc(Cl)s2)/C(=C/c2ccc(Cl)s2)C1 (stereo not given) | 64.9% | 48.5% | 46.8% | 34.5% |  |  | 66% | 
CN1CC2=C(OC(N)=C(C#N)C2c2cccs2)/C(=C/c2cccs2)C1 (stereo not given) | 68.8% | 50.2% |  | 38.9% |  |  | 70.9% | 
